Data taken from patent US20250162989A1, “USP30 INHIBITORS AND USES THEREOF” (Vincere Biosciences, Inc., priority 2021, published 2025).
Where two headings read alike, the source gives them in different places.

Legend:
USP30 = USP30 (Homo sapiens (Human), UniProt Q70CQ3); experiment: Dundee MALDI-TOF mass spectrometry assay (K48-linked diubiquitin cleavage); assay type: biochemical; conditions: USP30 25 ng/μl, K48-linked diubiquitin 5.6 μM
Description: USP30 was diluted in a buffer containing 40 mM Tris, 0.01% BSA, 1 mM DTT and K48 in 40 mM Tris, 0.01% BSA.
The compounds were pre-incubated with the USP30 for 5 mins at room temp before the K48 dimer addition. The assay mixture was then incubated for 45 mins at room temp. The assay was stopped by the addition of TFA to a final concentration of 2% (v/v).
Acidified samples of the DUB assays were mixed with 0.5 mM 15N-ubiquitin and then with one part of 2% (v/v) TFA and one part of 2.5 DHAP matrix solution (7.6 mg of 2.5 DHAP in […] ethanol and […] of an aqueous 12 mg ml 1 diammonium hydrogen citrate).

[1] = molecular target: recombinant USP30 (amino acids 57-517 of the human sequence) (Homo sapiens (Human), UniProt Q70CQ3); experiment: In vitro USP30 biochemical assay (Ubiquitin-Rhodamine substrate); conditions: fluorescence
Description: In vitro biochemical assay to establish the potency of compounds for USP30 inhibition: a 384-well plate assay using a fluorophore tagged substrate of USP30 was used for in vitro screening of compounds. Each compound was tested at
10 different concentrations (0.5 to 10,000 nM) in duplicate wells. […] Data were analyzed using Graph Pad Prism software with a four-parameter (floating slope) fit to log concentration data to determine IC50s.

[2] = 1.5 nM recombinant USP30, 25 nM Ubiquitin-Rhodamine
[3] = […] recombinant USP30, 25 nM Ubiquitin-Rhodamine

Chain of USP30 (Q70CQ3 whole entry): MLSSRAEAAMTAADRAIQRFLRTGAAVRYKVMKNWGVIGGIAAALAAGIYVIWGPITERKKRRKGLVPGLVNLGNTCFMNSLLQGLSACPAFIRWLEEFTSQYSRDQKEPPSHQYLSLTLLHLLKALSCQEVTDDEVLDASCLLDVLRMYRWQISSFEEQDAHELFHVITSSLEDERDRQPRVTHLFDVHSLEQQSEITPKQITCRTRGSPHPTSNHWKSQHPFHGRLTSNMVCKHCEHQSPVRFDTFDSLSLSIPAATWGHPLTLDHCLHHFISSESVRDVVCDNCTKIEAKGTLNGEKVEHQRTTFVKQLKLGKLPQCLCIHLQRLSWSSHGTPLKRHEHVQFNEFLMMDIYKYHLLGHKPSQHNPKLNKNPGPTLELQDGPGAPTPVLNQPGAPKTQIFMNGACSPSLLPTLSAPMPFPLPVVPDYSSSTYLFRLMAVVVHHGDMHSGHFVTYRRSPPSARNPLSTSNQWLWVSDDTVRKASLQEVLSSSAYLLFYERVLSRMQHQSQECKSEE
Chain of recombinant USP30 (amino acids 57-517 of the human sequence) (Q70CQ3 57-517): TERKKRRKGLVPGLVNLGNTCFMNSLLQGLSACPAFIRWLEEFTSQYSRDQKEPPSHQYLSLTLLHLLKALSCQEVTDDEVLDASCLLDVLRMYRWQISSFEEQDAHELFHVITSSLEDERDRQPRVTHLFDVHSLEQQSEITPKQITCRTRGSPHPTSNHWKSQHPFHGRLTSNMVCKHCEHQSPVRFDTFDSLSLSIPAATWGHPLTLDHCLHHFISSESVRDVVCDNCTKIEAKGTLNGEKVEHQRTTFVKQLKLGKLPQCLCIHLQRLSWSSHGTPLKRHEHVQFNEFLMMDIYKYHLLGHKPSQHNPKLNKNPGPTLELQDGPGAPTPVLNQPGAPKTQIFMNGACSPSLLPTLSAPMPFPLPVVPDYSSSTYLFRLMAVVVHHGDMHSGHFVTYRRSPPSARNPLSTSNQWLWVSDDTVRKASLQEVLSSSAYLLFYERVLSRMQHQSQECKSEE

IC50 (USP30; read-out: IC50) | IC50 [1, 2] | IC50 [1, 3] | IC50 (USP30; read-out: USP30 IC50 μM (avg)) | SMILES
 | 0.05 to 1 µM |  | 0.05 to 1 µM | CC(C)(CO)NS(=O)(=O)c1ccc(NC(=O)C(CC2CCNCC2)NC(=O)c2ccc(F)cc2)cc1 (centres unmarked) [Compound I-72]
 | 0.05 to 1 µM |  | 0.05 to 1 µM | COc1cc(NC(=O)[C@H](CC2CCOCC2)NC(=O)c2ccc(F)cc2)ccc1S(=O)(=O)NC(C)(C)CO [Compound I-85]
 |  | < 0.05 µM | < 0.05 µM | COc1cc(NC(=O)[C@H](CC2CCOCC2)NC(=O)c2ccc(F)cc2)ccc1S(=O)(=O)NC1CCCC1 [Compound I-87]
 | 0.05 to 1 µM |  | < 0.05 µM | O=C(N[C@@H](CC1CCOCC1)C(=O)Nc1ccc(S(=O)(=O)NC2CCC2)nc1)c1ccc(F)cc1 [Compound I-91]
 | 0.05 to 1 µM |  | 0.05 to 1 µM | COc1cc(NC(=O)[C@H](CC2CCN(C)CC2)NC(=O)c2ccc(F)cc2)ccc1S(=O)(=O)NC(C)(C)CO [Compound I-93]
 | 0.05 to 1 µM |  | 0.05 to 1 µM | CN1CCC(C[C@H](NC(=O)c2ccc(F)cc2)C(=O)Nc2ccc(S(=O)(=O)NC3COC3)cc2)CC1 [Compound I-99]
 |  | < 0.05 µM | < 0.05 µM | CC(=O)N1CCC(CC(NC(=O)c2ccc(F)cc2)C(=O)Nc2ccc(S(=O)(=O)NC(C)(C)C)cc2)CC1 (centres unmarked) [Compound I-101]
 |  |  | < 0.05 µM | CC(C)N1CCC(C[C@H](NC(=O)c2ccc(F)cc2)C(=O)Nc2ccc(S(=O)(=O)NC(C)(C)C)cc2)CC1 [Compound I-117]
 | 0.05 to 1 µM |  | < 0.05 µM | O=C(N[C@@H](CC1CCOCC1)C(=O)Nc1ccc(S(=O)(=O)NC2CCOCC2)cc1)c1ccc(F)cc1 [Compound I-128]
 | 0.05 to 1 µM |  | < 0.05 µM | C[C@@H](CO)NS(=O)(=O)c1ccc(NC(=O)[C@H](Cc2ccccc2)NC(=O)c2ccc(F)cc2)cc1 [Compound I-129]
 |  | < 0.05 µM | < 0.05 µM | C[C@H](CO)NS(=O)(=O)c1ccc(NC(=O)[C@H](Cc2ccccc2)NC(=O)c2ccc(F)cc2)cc1 [Compound I-130]
 |  | < 0.05 µM | < 0.05 µM | O=C(N[C@@H](Cc1ccccc1)C(=O)Nc1ccc(S(=O)(=O)NC2(CO)CC2)cc1)c1ccc(F)cc1 [Compound I-131]
 | 0.05 to 1 µM |  | < 0.05 µM | CC(CO)(CO)NS(=O)(=O)c1ccc(NC(=O)[C@H](Cc2ccccc2)NC(=O)c2ccc(F)cc2)cc1 [Compound I-132]
 |  | > 10 µM |  | CO[C@H]1C[C@@H](C(=O)Nc2ccc(S(=O)(=O)NC(C)(C)CO)cc2)N(C(=O)c2ccc(F)cc2)C1 [Compound I-291]

The next lines start with the molecule.

SMILES | IC50 (USP30; read-out: IC50) | IC50 [1, 2] | IC50 [1, 3] | IC50 (USP30; read-out: USP30 IC50 μM (avg))
COCCC(C)(C)NS(=O)(=O)c1ccc(NC(=O)[C@H](Cc2ccccc2)NC(=O)c2ccc(F)cc2)cc1C(F)(F)F [Compound I-65] | < 0.05 µM | 0.05 to 1 µM |  | 
CCNS(=O)(=O)c1ccc(NC(=O)[C@H](Cc2ccccc2)NC(=O)c2ccc(F)cc2)cc1O [Compound I-67, (S)—N-(1-(4-(N-ethylsulfamoyl)-3-hydroxyphenylamino)-1-oxo-3-phenylpropan-2-yl)-4-fluorobenzamide] | < 0.05 µM | 0.05 to 1 µM |  | 
O=C(N[C@@H](Cc1ccccc1)C(=O)Nc1ccc(S(=O)(=O)NC2COC2)c(C(F)(F)F)c1)c1ccc(F)cc1 [Compound I-68] | < 0.05 µM | 0.05 to 1 µM |  | 
O=C(N[C@@H](Cc1ccccc1)C(=O)Nc1ccc(S(=O)(=O)NC23CC(C2)C3)c(C(F)(F)F)c1)c1ccc(F)cc1 [Compound I-69] | < 0.05 µM | 0.05 to 1 µM |  | 
CC(C)(C)NS(=O)(=O)c1ccc(NC(=O)[C@H](Cc2ccccc2)NC(=O)c2ccc(F)cc2)cc1C(F)(F)F [Compound I-70, (S)—N-(1-(4-(N-tert-butylsulfamoyl)-3-(trifluoromethyl)phenylamino)-1-oxo-3-phenylpropan-2-yl)-4-fluorobenzamide] | < 0.05 µM |  | < 0.05 µM | 
CC(C)C[C@H](NC(=O)c1ccc(F)cc1)C(=O)Nc1ccc(S(=O)(=O)N[C@@H]2CCOC2)cc1 [Compound I-71] |  | 0.05 to 1 µM |  | < 0.05 µM
COc1cc(NC(=O)[C@H](CC2CCOCC2)NC(=O)c2ccc(F)cc2)cnc1S(=O)(=O)NC1CCCC1 [Compound I-82] |  | 0.05 to 1 µM |  | < 0.05 µM
COc1cc(NC(=O)[C@H](CC2CCN(C)CC2)NC(=O)c2ccc(F)cc2)ccc1S(=O)(=O)NC(C)(C)C [Compound I-84] |  | 0.05 to 1 µM |  | < 0.05 µM
COc1cc(NC(=O)[C@H](CC2CCOCC2)NC(=O)c2ccc(F)cc2)ccc1S(=O)(=O)NC1CCC1 [Compound I-86] |  |  | < 0.05 µM | < 0.05 µM
O=C(N[C@@H](CC1CCOCC1)C(=O)Nc1ccc(S(=O)(=O)NC2CCCC2)nc1)c1ccc(F)cc1 [Compound I-97] |  |  | < 0.05 µM | < 0.05 µM
CN1CCC(C[C@H](NC(=O)c2ccc(F)cc2)C(=O)Nc2ccc(S(=O)(=O)N[C@@H]3CCOC3)cc2)CC1 [Compound I-103] |  | 0.05 to 1 µM |  | 0.05 to 1 µM
CN1CCC(C[C@H](NC(=O)c2ccc(F)cc2)C(=O)Nc2ccc(S(=O)(=O)N[C@@H]3CCOC3)nc2)CC1 [Compound I-105] |  | 0.05 to 1 µM |  | 0.05 to 1 µM
CN1CCC(C[C@H](NC(=O)c2ccc(F)cc2)C(=O)Nc2ccc(S(=O)(=O)NC(C)(C)CO)nc2)CC1 [Compound I-106] |  | 0.05 to 1 µM |  | 0.05 to 1 µM
O=C(N[C@@H](CC1CCNCC1)C(=O)Nc1ccc(S(=O)(=O)N[C@@H]2CCOC2)cc1)c1ccc(F)cc1 [Compound I-107] |  | 0.05 to 1 µM |  | 0.05 to 1 µM
COc1cc(NC(=O)[C@H](CC2CCNCC2)NC(=O)c2ccc(F)cc2)ccc1S(=O)(=O)NC1COC1 [Compound I-109, (S)-4-fluoro-N-(1-((3-methoxy-4-(N-(oxetan-3-yl)sulfamoyl)phenyl)amino)-1-oxo-3-(piperidin-4-yl)propan-2-yl)benzamide] |  | 0.05 to 1 µM |  | < 0.05 µM
COc1cc(NC(=O)[C@H](CC2CCNCC2)NC(=O)c2ccc(F)cc2)ccc1S(=O)(=O)N[C@@H]1CCOC1 [Compound I-110] |  | 0.05 to 1 µM |  | 0.05 to 1 µM
CC(C)(CF)NS(=O)(=O)c1ccc(NC(=O)[C@H](CC2CCOCC2)NC(=O)c2ccc(F)cc2)cc1 [Compound I-112] |  |  | < 0.05 µM | < 0.05 µM
CC(C)(C)NS(=O)(=O)c1ccc(NC(=O)[C@H](CC2CCN(Cc3ccccc3)CC2)NC(=O)c2ccc(F)cc2)cc1 [Compound I-115] |  |  | < 0.05 µM | < 0.05 µM
CC(C)(C)NS(=O)(=O)c1ccc(NC(=O)C(CC2CCN(CCO)CC2)NC(=O)c2ccc(F)cc2)cc1 (centres unmarked) [Compound I-121] |  |  | < 0.05 µM | < 0.05 µM
CC(C)(CF)NS(=O)(=O)c1ccc(NC(=O)[C@H](CC2CCNCC2)NC(=O)c2ccc(F)cc2)cc1 [Compound I-122] |  | 0.05 to 1 µM |  | < 0.05 µM
N#CN1CC[C@@H](NC(=O)[C@H](Cc2ccccc2)NC(=O)c2ccc(F)cc2)C1 [Compound I-125] |  | 0.05 to 1 µM |  | 0.05 to 1 µM
O=C(N[C@@H](CC1CCOCC1)C(=O)Nc1ccc(S(=O)(=O)NC2CCOCC2)nc1)c1ccc(F)cc1 [Compound I-133] |  | 0.05 to 1 µM |  | < 0.05 µM
COc1cc(NC(=O)[C@H](Cc2ccccc2)NC(=O)c2ccc(F)cc2)ccc1S(=O)(=O)N[C@@H](C)CO [Compound I-136] |  | 0.05 to 1 µM |  | < 0.05 µM
CO[C@H]1C[C@@H](C(=O)Nc2ccc(S(=O)(=O)NC(C)(C)C)cc2)N(C(=O)c2ccc(F)cc2)C1 [Compound I-290] |  | 1 to 10 µM |  | 
CC(C)(C)NS(=O)(=O)c1ccc(NC(=O)C2CC(C3CCCCC3)CN2C(=O)c2ccc(F)cc2)cc1 (centres unmarked) [Compound I-292] |  | 0.05 to 1 µM |  | 
